# Laboratory results as given in patent publication US20220291235A1, “ACOUSTO-THERMAL SHIFT ASSAY FOR LABEL-FREE PROTEIN ANALYSIS” (THE REGENTS OF THE UNIVERSITY OF COLORADO - A BODY CORPORATE, priority 2019, published 2022).
# Experiments:
# [1] = biological target: T1, citrate synthase (CS) from porcine heart (Sus scrofa, UniProt P00889); assay: Conventional thermal shift assay, BCA assay (BCA-TSA), CS-OAA binding
# T1 construct: citrate synthase (CS) from porcine heart (Millipore Sigma); purchased Millipore Sigma; host or cells: porcine heart
# T1 sequence (P00889 28-464): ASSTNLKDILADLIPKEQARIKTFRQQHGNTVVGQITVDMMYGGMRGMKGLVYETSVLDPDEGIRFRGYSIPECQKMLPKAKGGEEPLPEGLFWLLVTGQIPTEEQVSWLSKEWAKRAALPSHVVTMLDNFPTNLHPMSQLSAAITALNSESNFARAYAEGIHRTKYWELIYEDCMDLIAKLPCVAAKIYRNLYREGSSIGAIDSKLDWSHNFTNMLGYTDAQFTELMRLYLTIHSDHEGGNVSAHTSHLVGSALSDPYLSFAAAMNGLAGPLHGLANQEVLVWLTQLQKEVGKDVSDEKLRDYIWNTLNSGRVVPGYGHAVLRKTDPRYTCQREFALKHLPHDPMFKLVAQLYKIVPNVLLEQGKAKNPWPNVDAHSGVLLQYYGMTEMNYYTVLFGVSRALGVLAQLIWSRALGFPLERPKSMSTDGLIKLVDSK
# Method: (§1) In some embodiments, SAW-driven protein unfolding and concentration can be used for analysis of protein-ligand binding to analyze the melting temperature (Tm) and its shift (Δtm) upon protein-ligand binding. Gray intensity of the precipitated and concentrated proteins was measured and plotted as a function of SAW time in A-TSA. See, FIG. 5A. Two control conventional TSA methods were performed in parallel measuring the data using either a differential scanning fluorimetry (DSF) assay or a bicinchoninic acid (BCA) assay. DSF, the most popular C-TSA method, utilizes dye fluorescence as a measure of protein unfolding. Matulis et al., “Thermodynamic stability of carbonic anhydrase: measurements of binding affinity and stoichiometry using ThermoFluor” J. Biochemistry 44:5258-5266 (2005). On the other hand, BCA quantifies the amount of remaining soluble proteins after thermal unfolding. Brown et al., “Protein measurement using bicinchoninic acid: elimination of interfering substances” Anal. Biochem. 180:136-139 (1989). BCA assay: For thermal gradient profiling, a gradient program was created using a PTC-200 thermal cycler (MJ Research, Reno, N.V., USA) to cover the temperature points indicated in each figure. A PCR plate was prepared with 25 μL per well of recombinant protein or lysate and sealed (4titude Random Access, PN 4ti-0960/RA 96-well plate). […]
# [2] = biological target: T1, citrate synthase (CS) from porcine heart; assay: Conventional thermal shift assay, SYPRO DSF assay (DSF-TSA), CS-OAA binding; settings: OAA present
# Method: In some embodiments, SAW-driven protein unfolding and concentration can be used for analysis of protein-ligand binding to analyze the melting temperature (Tm) and its shift (Δtm) upon protein-ligand binding. Gray intensity of the precipitated and concentrated proteins was measured and plotted as a function of SAW time in A-TSA. See, FIG. 5A. Two control conventional TSA methods were performed in parallel measuring the data using either a differential scanning fluorimetry (DSF) assay or a bicinchoninic acid (BCA) assay. DSF, the most popular C-TSA method, utilizes dye fluorescence as a measure of protein unfolding. Matulis et al., “Thermodynamic stability of carbonic anhydrase: measurements of binding affinity and stoichiometry using ThermoFluor” J. Biochemistry 44:5258-5266 (2005). On the other hand, BCA quantifies the amount of remaining soluble proteins after thermal unfolding. Brown et al., “Protein measurement using bicinchoninic acid: elimination of interfering substances” Anal. Biochem. 180:136-139 (1989).
# SYPRO DSF assay: SYPRO Orange melting curves were collected using the 7900HT Fast Real-Time PCR System. […] To analyze melting curves, the fluorescence was normalized to the starting temperature and to no protein controls. The data was then scaled to interval (0,1) and then the replicates were averaged, and standard deviation calculated.
# [3] = biological target: T1, citrate synthase (CS) from porcine heart; assay: Acousto-thermal shift assay (A-TSA), CS-OAA binding; settings: same SAW actuation (19.6 MHz, 3 Watts), CS 15 μM
# From the text: (§2) Specifically, two identical SAWs were generated by applying an AC (alternating current) signal to a pair of interdigital transducers (IDTs) deposited on the surface of a lithium niobate piezoelectric substrate. A standing SAW was formed within a 1×10 mm^2 polydimethylsiloxane (PDMS) microchannel. The microchannel was bonded on top of a substrate between these two IDTs. See, FIGS. 4A(i) and FIG. 4B. […] Most proteins rapidly precipitate and aggregate after their unfolding. See, FIG. 4A(ii).
# (§3) Simultaneously, the standing SAW aggregates and concentrates precipitated protein along the acoustic pressure nodes and/or antinodes. See, FIG. 4A(iii). Gray intensity (Im) of the precipitated and aggregated proteins was analyzed and plotted as a function of SAW time, giving rise to a sigmoidal melting curve. See, FIG. 4A(iv). The melting time (Tm) was determined as the time point when half of proteins were unfolded (i.e. herein, a 50% change of gray intensity occurs where Im=(Imax+Imin)/2.). Using this simple analysis, the time shift Δτm between between two samples can be measured at a given SAW power and analyzed to compare conditions or ligands that stabilize or destabilize proteins. Overall, this new technique provides a rapid, simple and efficient workflow for analysis of changes in apparent melting curves. […]
# human hemoglobin (Hb) [4] = biological target: T2, human hemoglobin (Hb) (Homo sapiens, UniProt P68871+P69905); assay: Conventional thermal shift assay, BCA assay (BCA-TSA), Hb-Pal binding
# T2 construct: purchased Millipore Sigma
# Method: as §1
# human hemoglobin (Hb) [5] = biological target: T2, human hemoglobin (Hb); assay: Acousto-thermal shift assay (A-TSA), Hb-Pal binding; settings: SAW 19.6 MHz, 3 Watts, Hb 31 μM
# From the text: as §2, §3
# T2 sequence (P69905 2-142 limits assumed): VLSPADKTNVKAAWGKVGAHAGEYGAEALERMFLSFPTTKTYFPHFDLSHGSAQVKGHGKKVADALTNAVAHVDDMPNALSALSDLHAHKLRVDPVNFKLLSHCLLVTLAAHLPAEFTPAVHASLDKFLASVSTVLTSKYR
# T2 sequence (P68871 2-147 limits assumed): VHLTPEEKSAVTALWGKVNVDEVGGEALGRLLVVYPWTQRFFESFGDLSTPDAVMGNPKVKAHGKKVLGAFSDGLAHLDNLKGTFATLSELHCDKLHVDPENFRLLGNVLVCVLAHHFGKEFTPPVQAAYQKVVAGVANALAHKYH
increase of Tm of CS (60.3° C.) upon ligand binding ([1]; 1 mM OAA),increase of Tm of CS (60.3° C.) upon ligand binding ([1]; 2 mM OAA),tm shift of CS as detected in DSF assay [2],increase of tm of CS (36.23 s) upon ligand binding ([3]; 1 mM OAA),increase of tm of CS (36.23 s) upon ligand binding ([3]; 2 mM OAA),decrease of Tm of Hb (59.1° C.) upon ligand binding (human hemoglobin (Hb) [4]; 0.62 mM Pal),decrease of Tm of Hb (59.1° C.) upon ligand binding (human hemoglobin (Hb) [4]; 1.24 mM Pal),reduction of melting time (Tm) of Hb (46.85 s) upon ligand binding (human hemoglobin (Hb) [5]; 0.62 mM Pal),reduction of melting time (Tm) of Hb (46.85 s) upon ligand binding (human hemoglobin (Hb) [5]; 1.24 mM Pal),SMILES
2.0 °C,2.9 °C,small and not statistically significant,10.45 s,15.77 s,,,,,"O=C(O)CC(=O)C(=O)O [OAA, oxaloacetic acid]"
,,,,,0.7 °C,1.1 °C,3.52 s,7.30 s,"COc1cc2c(cc1OC)-c1cc3ccc(OC)c(OC)c3c[n+]1CC2 [Pal, palmatine chloride]"
